Results published in patent US20240238232A1, “COMPOSITIONS AND METHODS FOR THE REDUCTION OR TREATMENT OF INSULIN RESISTANCE AND METABOLIC CONDITIONS” (AXCELLA HEALTH INC., priority 2018, published 2024).
“And” between values parts separate entries of the source, which are not always exact repeats. Equal entries are not always repeated.

Test system: STAM™ model (NASH)
Test: NAFLD activity score (HE staining, Kleiner criteria) in STAM mice, Example 2
Type: in vivo, mouse
Design: key to NAFLD Activity Score (NAS), mean / NAFLD Activity Score: raw data: NAS = steatosis (0-3) + inflammation (0-2) + ballooning (0-2); key to NAFLD Activity: Steatosis Score, mean / NAFLD Activity: Steatosis Score: raw data: steatosis grade 0-3 (Kleiner criteria)
Settings: A-1 1500 mg/kg twice daily, OCA 30 mg/kg once daily
Protocol: Amino Acid Composition A-1 and Obeticholic acid (6α-ethyl-chenodeoxycholic acid; “OCA”) were tested for their ability to treat NASH in the STAM™ model (Stelic Institute & Co., Tokyo, Japan; Saito K. et al., 2015 Sci Rep 5:12466). Two additional groups of normal C57BL/6 mice fed standard chow and vehicle treated STAM™ mice were included as controls. All animals receiving treatment or vehicle were treated starting at 6 weeks until 9 weeks of age. Compounds were administered via oral gavage, with a dose volume of 10 ml/kg. Amino Acid Composition A-1 was administered twice daily at a dose of 1500 mg/kg, and OCA was administered once daily at a dose of 30 mg/kg.
STAM™ is a model for non-alcoholic steatohepatitis (NASH) and hepatocellular carcinoma (HCC), developed by SMC Laboratories, Inc. and created by the combination of chemical and dietary interventions using C57BL/6 mice (Saito K. et al., 2015 Sci Rep 5:12466). Mice are treated with a low dose of streptozotocin at birth and fed a high fat diet starting at 4 weeks. Evidence of fatty liver is present by 5 weeks, followed by NASH by 7 weeks and fibrosis by 9 weeks.
NASH was induced in 53 male mice by a single subcutaneous injection of 200 μg streptozotocin (STZ, Sigma-Aldrich, USA) solution 2 days after birth and feeding with high fat diet (HFD, 57 kcal % fat, Cat #HFD32, CLEA Japan, Japan) after 4 weeks of age.
Amino Acid Composition A-1, OCA and Vehicle (described below) were administered by oral route in a volume of 10 mL/kg. Amino Acid Composition A-1 was solubilized in deionized water to 150 mg/ml (10 X). OCA (Advanced ChemBlocks Inc.) was resuspended in 0.5% methycellulose in water to 3 mg/ml (10 X). Amino Acid Composition A-1 was administered at a dose of 1500 mg/kg twice daily (9 am and 7 pm). OCA was administered at a dose of 30 mg/kg once daily (9 am).
Liver samples from mice in Group 2 (Vehicle), 3 (Amino Acid Composition A-1) and 4 (OCA) were used for the following assays. For HE staining, sections were cut from paraffin blocks of liver tissue prefixed in Bouin's solution and stained with Lillie-Mayer's Hematoxylin (Muto Pure Chemicals Co., Ltd., Japan) and eosin solution (Wako Pure Chemical Industries). NAFLD Activity score (NAS) was calculated according to the criteria of Kleiner (Kleiner D. E. et al., Hepatology, 2005; 41:1313).
The non-alcoholic fatty liver disease (NAFLD) activity score was assessed via histological analysis and grading of H&E stained liver sections from each animal. This score is the sum of three individual scores that grade the degree of steatosis (0-3), inflammation (0-2), and hepatocyte ballooning (0-2). All tissues were graded using the scoring criteria of Kleiner et al. (Kleiner et al. Hepatology. 2005; 41(6): 1313-21). Data are mean±standard deviation (stdev). […] Both Amino Acid Composition A-1 and OCA were statistically different from vehicle for NAFLD Activity Score when compared using Dunnett's multiple comparisons test (Amino Acid Composition A-1 p=0.0001, OCA p=0.0001).

[1] = STAM mice, oral, 6 to 9 weeks of age

Question: Which “NAFLD Activity Score (NAS), mean” value [1] does the source give for `CC[C@H]1[C@@H](O)[C@@H]2[C@H](CC[C@]3(C)[C@@H]([C@H](C)CCC(=O)O)CC[C@@H]23)[C@@]2(C)CC[C@@H](O)C[C@@H]12` [OCA, 6α-ethyl-chenodeoxycholic acid] here?
Answer: 2.9+/−0.74 and 2.9

Question: And the “NAFLD Activity: Ballooning Score, mean” value [1]?
Answer: 0.3+−0.48 and 0.3

Question: What about the “NAFLD Activity: Inflammation Score, mean” value [1] of the same molecule?
Answer: 1.8

Question: And the “NAFLD Activity: Steatosis Score, mean” value [1]?
Answer: 0.8

Question: What about the “NAFLD Activity Score: raw data” value (individual STAM mice) of the same molecule?
Answer: 2 (3×) and 4 (2×) and 3 (5×)

Question: What about the “NAFLD Activity: Ballooning Score: raw data” value (individual STAM mice) of the same molecule?
Answer: 0 (7×) and 1 (3×)

Question: And the “NAFLD Activity: Inflammation Score: raw data” value (individual STAM mice)?
Answer: 1 (4×) and 2 (4×) and 3 (2×)

Question: What about the “NAFLD Activity: Steatosis Score: raw data” value (individual STAM mice) of the same molecule?
Answer: 1 (8×) and 0 (2×)
